For 9 compounds, Dmax and DC50 results are on record in patent US20220370416A1, “COMPOUNDS AND METHODS FOR TARGETED DEGRADATION OF KRAS” (Arvinas Operations, Inc., priority 2020, published 2022).

SMILES strings stand for the structures. Some results are limits rather than exact numbers.

For test [1], the target named is T1, HiBit-KRAS^G12C (Homo sapiens, UniProt P01116, G12C). In words: HiBit degradation assay in SW1573 HiBit-KRas^G12C cells. The test is classed as cell-based. Set-up: expressed in transfected cells; host or cells: SW1573 (clone E6), modified pcDNA3.1 vector, TK promoter. Conditions: 24 hours; for Dmax: SW1573, SW1573 HiBit-KRas^G12C; for DC50: SW1573 HiBit-KRas^G12C. The method, boiled down: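 SW1573 cells stably expressing N-terminally HiBit-tagged KRAS G12C, under the TK promoter, were treated 24 h at 37 °C with 10 μM to 20 nM compound in 0.1% or 0.5% DMSO. Residual HiBit luminescence normalised to DMSO and fitted with a 4-parameter model for DC50 and Dmax. Points with ≥50% viability loss (alamar blue) excluded.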

For test [2], the target named is T1, HiBit-KRAS^G12C. In words: HiBit degradation assay in MiaPaCa-2 HiBit-KRas^G12C cells. The test is classed as cell-based. Conditions: 24 hours; for Dmax: MIA PaCa-2, MiaPaCa-2 HiBit-KRas^G12C cells, maximum degradation; for DC50: MiaPaCa-2 HiBit-KRas^G12C cells. The gist of the method: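 MiaPaCa-2 cells with CRISPR N-terminal HiBit knock-in on one endogenous KRAS^G12C allele, treated 24 hours at 37° C with compound titrated 10 μM to 20 nM (0.1% or 0.5% DMSO). Lytic HiBit luminescence normalized to DMSO, 4-parameter fit giving DC50 and Dmax; points cytotoxic to […] cells by alamar blue excluded.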

Where [3] appears, read: 0.1% DMSO, read-out: KRas^G12C-HiBit (SW1573; 0.1% DMSO) Dmax**.
[4] abbreviates: 0.5% DMSO, read-out: KRas^G12C-HiBiT (SW1573; 0.5% DMSO) Dmax**.
[5] abbreviates: 0.1% DMSO, read-out: KRas^G12C-HIBit (SW1573; 0.1% DMSO) DC50*.
The mark [6] stands for this setting: 0.1% DMSO, read-out: KRas^G12C-HiBiT (MiaPaCa; 0.1% DMSO) DMax.
The mark [7] stands for this setting: 0.5% DMSO, read-out: KRas^G12C-HiBiT (MiaPaCa; 0.5% DMSO) DMax.
Setting [8] is: read-out: KRas^G12C-HiBiT (SW1573; 0.5% DMSO) IC50***, 0.5% DMSO.
Where [9] appears, read: read-out: KRas^G12C-HiBiT (MiaPaCa; 0.5% DMSO) IC50, 0.5% DMSO.
Where [10] appears, read: read-out: KRas^G12C-HiBiT (MiaPaCa; 0.1% DMSO) IC50, 0.1% DMSO.

T1 sequence (P01116 1-186 isoform P01116-2 G12C limits assumed): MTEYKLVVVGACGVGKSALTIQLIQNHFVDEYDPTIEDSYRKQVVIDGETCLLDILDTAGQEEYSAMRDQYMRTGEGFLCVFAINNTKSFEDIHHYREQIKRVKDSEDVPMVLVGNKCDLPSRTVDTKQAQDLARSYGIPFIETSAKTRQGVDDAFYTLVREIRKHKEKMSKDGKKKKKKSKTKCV

With `C=CC(=O)N1CCN(c2nc(OCCN3CCC(OCCOc4cc([C@H](C(=O)N5C[C@H](O)C[C@H]5C(=O)N[C@@H](C)c5ccc(-c6scnc6C)cc5)C(C)C)on4)CC3)nc3c(F)c(-c4cc(O)cc5ccccc45)c(Cl)cc23)C[C@@H]1CC#N` (single isomer, unassigned) [Compound 21], the Dmax at HiBit-KRAS^G12C [1] (setting [3]), on HiBit-KRAS^G12C [1] (setting [4]), at HiBit-KRAS^G12C [2] (setting [6]) and at HiBit-KRAS^G12C [2] (setting [7]) was more than 70% each time. Moreover, the DC50 on HiBit-KRAS^G12C [1] (setting [5]) lay in the range of 0.1 to 1 µM.
Regarding `C=CC(=O)N1CCN(c2nc(O[C@H](C)CN3CCC(OCC(=O)N[C@H](C(=O)N4C[C@H](O)C[C@H]4C(=O)N[C@@H](C)c4ccc(-c5scnc5C)cc4)C(C)(C)C)CC3)nc3c(F)c(-c4cc(O)cc5ccccc45)c(Cl)cc23)CC1` [Compound 43, (2S,4R)-1-[(2S)-2-[2-({1-[(2R)-2-{[6-chloro-8-fluoro-7-(3-hydroxynaphthalen-1-yl)-4-[4-(prop-2-enoyl)piperazin-1-yl]quinazolin-2-yl]oxy}propyl]piperidin-4-yl}oxy)acetamido]-3,3-dimethylbutanoyl]-4-hydroxy-N-[(1S)-1-[4-(4-methyl-1,3-thiazol-5-yl)phenyl]ethyl]pyrrolidine-2-carboxamide], the Dmax on HiBit-KRAS^G12C [1] (setting [3]) is 35 to 70%; at HiBit-KRAS^G12C [1] (setting [4]) it was more than 70%; at HiBit-KRAS^G12C [2] (setting [6]), 35 to 70%; on HiBit-KRAS^G12C [2] (setting [7]), 35 to 70%. Also, at HiBit-KRAS^G12C [1] (setting [5]), the DC50 was 0.1 to 1 µM.
Turning to `C=CC(=O)N1CCN(c2nc(OCCN3CCC(F)(COc4cc([C@@H](C(=O)N5C[C@H](O)C[C@H]5C(=O)N[C@@H](C)c5ccc(-c6scnc6C)cc5)C(C)C)on4)CC3)nc3c(F)c(-c4cc(O)cc5ccccc45)c(Cl)cc23)C[C@@H]1CC#N` [Compound 134, (2S,4R)-1-[(2S)-2-[3-({1-[2-({6-chloro-4-[(3S)-3-(cyanomethyl)-4-(prop-2-enoyl)piperazin-1-yl]-8-fluoro-7-(3-hydroxynaphthalen-1-yl)quinazolin-2-yl}oxy)ethyl]-4-fluoropiperidin-4-yl}methoxy)-1,2-oxazol-5-yl]-3-methylbutanoyl]-4-hydroxy-N-[(1S)-1-[4-(4-methyl-1,3-thiazol-5-yl)phenyl]ethyl]pyrrolidine-2-carboxamide], the DC50 on HiBit-KRAS^G12C [1] (setting [8]) and on HiBit-KRAS^G12C [2] (setting [9]) was more than 1 µM each time.
With `C=CC(=O)N1CCN(c2nc(O[C@H](C)CN3CCC(OCCOCC(=O)N[C@H](C(=O)N4C[C@H](O)C[C@H]4C(=O)N[C@@H](C)c4ccc(-c5scnc5C)cc4)C(C)(C)C)CC3)nc3c(F)c(-c4cc(O)cc5ccccc45)c(Cl)cc23)C[C@H]1C` [Compound 45, (2S,4R)-1-[(2S)-2-{2-[2-({1-[(2R)-2-{[6-chloro-8-fluoro-7-(3-hydroxynaphthalen-1-yl)-4-[(3R)-3-methyl-4-(prop-2-enoyl)piperazin-1-yl]quinazolin-2-yl]oxy}propyl]piperidin-4-yl}oxy)ethoxy]acetamido}-3,3-dimethylbutanoyl]-4-hydroxy-N-[(1S)-1-[4-(4-methyl-1,3-thiazol-5-yl)phenyl]ethyl]pyrrolidine-2-carboxamide], the Dmax at HiBit-KRAS^G12C [1] (setting [3]) is less than 35%. In addition, the results for the DC50 at HiBit-KRAS^G12C [1] (setting [5]) and on HiBit-KRAS^G12C [2] (setting [10]) were 0.1 to 1 µM and more than 1 µM, respectively.
As to `C=CC(=O)N1CCN(c2nc(OCCN3CCC(CCOCC(=O)N[C@H](C(=O)N4C[C@H](O)C[C@H]4C(=O)N[C@@H](C)c4ccc(-c5scnc5C)cc4)C(C)(C)C)CC3)nc3c(F)c(-c4cc(O)cc5ccccc45)c(Cl)cc23)CC1` [Compound 64, (2S,4R)-1-[(2S)-2-(2-{2-[l-(2-{[6-chloro-8-fluoro-7-(3-hydroxynaphthalen-1-yl)-4-[4-(prop-2-enoyl)piperazin-1-yl]quinazolin-2-yl]oxy}ethyl)piperidin-4-yl]ethoxy}acetamido)-3,3-dimethylbutanoyl]-4-hydroxy-N-[(1S)-1-[4-(4-methyl-1,3-thiazol-5-yl)phenyl]ethyl]pyrrolidine-2-carboxamide], the Dmax is 35 to 70% on HiBit-KRAS^G12C [1] (setting [3]), 35 to 70% at HiBit-KRAS^G12C [1] (setting [4]), less than 35% at HiBit-KRAS^G12C [2] (setting [6]) and 35 to 70% at HiBit-KRAS^G12C [2] (setting [7]). At HiBit-KRAS^G12C [1] (setting [5]), the DC50 fell in the range of 0.1 to 1 µM.
Regarding `C=CC(=O)N1CCN(c2nc(O[C@H](C)CN3CCC(CCOCC(=O)N[C@H](C(=O)N4C[C@H](O)C[C@H]4C(=O)N[C@@H](C)c4ccc(-c5scnc5C)cc4)C(C)(C)C)CC3)nc3c(F)c(-c4cc(O)cc5ccccc45)c(Cl)cc23)CC1` [Compound 68, (2S,4R)-1-[(2S)-2-[2-(2-{1-[(2R)-2-{[6-chloro-8-fluoro-7-(3-hydroxynaphthalen-1-yl)-4-[4-(prop-2-enoyl)piperazin-1-yl]quinazolin-2-yl]oxy}propyl]piperidin-4-yl}ethoxy)acetamido]-3,3-dimethylbutanoyl]-4-hydroxy-N-[(1S)-1-[4-(4-methyl-1,3-thiazol-5-yl)phenyl]ethyl]pyrrolidine-2-carboxamide], the Dmax is 35 to 70% on HiBit-KRAS^G12C [1] (setting [3]), 35 to 70% at HiBit-KRAS^G12C [1] (setting [4]), less than 35% on HiBit-KRAS^G12C [2] (setting [6]) and 35 to 70% on HiBit-KRAS^G12C [2] (setting [7]). At HiBit-KRAS^G12C [1] (setting [5]), the DC50 fell in the range of 0.1 to 1 µM.
Regarding `C=CC(=O)N1CCN(c2nc(OCCN3CCC(COc4cc([C@H](C(=O)N5C[C@H](O)C[C@H]5C(=O)N[C@@H](C)c5ccc(-c6ccnn6C)cc5)C(C)C)on4)CC3)nc3c(F)c(-c4cc(O)cc5ccccc45)c(Cl)cc23)C[C@@H]1CC#N` (atropisomer, axis not shown) [Compound 138, (2S,4R)-1-[(2R)-2-[3-({1-[2-({6-chloro-4-[(3S)-3-(cyanomethyl)-4-(prop-2-enoyl)piperazin-1-yl]-8-fluoro-7-(3-hydroxynaphthalen-1-yl)quinazolin-2-yl}oxy)ethyl]-piperidin-4-yl}methoxy)-1,2-oxazol-5-yl]-3-methylbutanoyl]-4-hydroxy-N-[(1S)-1-[4-(1-methyl-1H-pyrazol-5-yl)phenyl]ethyl]pyrrolidine-2-carboxamide], the Dmax on HiBit-KRAS^G12C [1] (setting [4]) and on HiBit-KRAS^G12C [2] (setting [7]) was more than 70% each time. Further, the values for the DC50 at HiBit-KRAS^G12C [1] (setting [8]) and at HiBit-KRAS^G12C [2] (setting [9]) were less than 0.1 µM and 0.1 to 1 µM, respectively.
With `C=CC(=O)N1CCN(c2nc(OCCN3CCC(COCC(=O)N[C@H](C(=O)N4C[C@H](O)C[C@H]4C(=O)N[C@@H](C)c4ccc(-c5scnc5C)cc4)C(C)(C)C)CC3)nc3c(F)c(-c4nc(NC)cc5ccccc45)c(Cl)cc23)C[C@@H]1CC#N` [Compound 99, (2S,4R)-1-[(2S)-2-[2-({1-[2-({6-chloro-4-[(3S)-3-(cyanomethyl)-4-(prop-2-enoyl)piperazin-1-yl]-8-fluoro-7-[3-(methylamino)isoquinolin-1-yl]quinazolin-2-yl}oxy)ethyl]piperidin-4-yl}methoxy)acetamido]-3,3-dimethylbutanoyl]-4-hydroxy-N-[(1S)-1-[4-(4-methyl-1,3-thiazol-5-yl)phenyl]ethyl]pyrrolidine-2-carboxamide], the Dmax at HiBit-KRAS^G12C [1] (setting [4]) and at HiBit-KRAS^G12C [2] (setting [7]) was more than 70% each time. Also, the DC50 at HiBit-KRAS^G12C [1] (setting [8]) and on HiBit-KRAS^G12C [2] (setting [9]) was more than 1 µM throughout.
Consider `C=CC(=O)N1CCN(c2nc(O[C@H](C)CN3CCC(OCCOCCOCCOc4cc(-c5scnc5C)ccc4CNC(=O)[C@@H]4C[C@@H](O)CN4C(=O)[C@H](c4cc(C)no4)C(C)C)CC3)nc3c(F)c(-c4cc(O)cc5ccccc45)c(Cl)cc23)CC1` [Compound 69, (2S,4R)-N-{[2-(2-{2-[2-({1-[(2R)-2-{[6-chloro-8-fluoro-7-(3-hydroxynaphthalen-1-yl)-4-[4-(prop-2-enoyl)piperazin-1-yl]quinazolin-2-yl]oxy}propyl]piperidin-4-yl}oxy)ethoxy]ethoxy}ethoxy)-4-(4-methyl-1,3-thiazol-5-yl)phenyl]methyl}-4-hydroxy-1-[(2S)-3-methyl-2-(3-methyl-1,2-oxazol-5-yl)butanoyl]pyrrolidine-2-carboxamide], for which the Dmax at HiBit-KRAS^G12C [1] (setting [3]) was 35 to 70%. In addition, the DC50 at HiBit-KRAS^G12C [1] (setting [5]) is 0.1 to 1 µM; on HiBit-KRAS^G12C [2] (setting [10]) it was more than 1 µM.
